The values that follow are results of earlier work, collected in patent US11707478B2, “Method for increasing uridine concentration in blood plasma” (N.V. Nutricia, priority 2016, dated 2023).

The target of data set [1] is T1, CNT 1 (Homo sapiens, UniProt O00337).
T1 sequence (O00337 1-649): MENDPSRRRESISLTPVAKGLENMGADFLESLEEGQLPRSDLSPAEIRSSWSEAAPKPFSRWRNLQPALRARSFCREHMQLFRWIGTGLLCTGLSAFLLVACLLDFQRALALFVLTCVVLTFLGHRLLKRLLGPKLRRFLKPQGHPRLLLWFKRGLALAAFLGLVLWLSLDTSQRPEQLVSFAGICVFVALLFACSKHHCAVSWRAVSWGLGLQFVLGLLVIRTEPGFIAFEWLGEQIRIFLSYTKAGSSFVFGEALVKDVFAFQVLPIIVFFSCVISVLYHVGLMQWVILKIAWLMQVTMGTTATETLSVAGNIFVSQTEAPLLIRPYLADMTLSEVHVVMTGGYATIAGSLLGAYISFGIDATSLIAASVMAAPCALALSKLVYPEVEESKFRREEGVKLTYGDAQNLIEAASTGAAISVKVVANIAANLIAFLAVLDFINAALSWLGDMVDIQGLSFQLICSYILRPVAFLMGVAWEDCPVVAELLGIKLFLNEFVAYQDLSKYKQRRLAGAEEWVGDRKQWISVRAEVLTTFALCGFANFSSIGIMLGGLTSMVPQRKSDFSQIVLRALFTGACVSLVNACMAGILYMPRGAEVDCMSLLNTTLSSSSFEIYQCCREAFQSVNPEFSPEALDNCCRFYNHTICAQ
The note with it: CNT 1 in the gut and in many other cells; read-out: apparent Km value of main transporter.

The conditions of data set [2]: oral administration of uridine, Klubes 1986.

Each structure is given as a SMILES string.

In the case of `O=c1ccn([C@@H]2O[C@H](CO)[C@@H](O)[C@H]2O)c(=O)[nH]1` [Uridine, 1-[(2R,3R,4S,5R)-3,4-dihydroxy-5-(hydroxymethyl)oxolan-2-yl]pyrimidine-2,4-dione], in data set [1], the Michaelis constant (Km) is 6 to 16 µM. The bioavailability result in data set [2] is listed as “about 7%”.

Usually Km stands for the substrate concentration at which the rate is half of its maximum.
